The text below walks through data of ChEMBL document CHEMBL1177834, “ADMET rules of thumb II: A comparison of the effects of common substituents on a range of ADMET parameters” (Bioorg Med Chem, 2009).

The test deals with Cytochrome P450 2C9 (Homo sapiens, UniProt P11712). Kind of test: Inhibition of CYP2C9. Type of test: ADME.
Cytochrome P450 2C9, sequence (P11712 whole entry): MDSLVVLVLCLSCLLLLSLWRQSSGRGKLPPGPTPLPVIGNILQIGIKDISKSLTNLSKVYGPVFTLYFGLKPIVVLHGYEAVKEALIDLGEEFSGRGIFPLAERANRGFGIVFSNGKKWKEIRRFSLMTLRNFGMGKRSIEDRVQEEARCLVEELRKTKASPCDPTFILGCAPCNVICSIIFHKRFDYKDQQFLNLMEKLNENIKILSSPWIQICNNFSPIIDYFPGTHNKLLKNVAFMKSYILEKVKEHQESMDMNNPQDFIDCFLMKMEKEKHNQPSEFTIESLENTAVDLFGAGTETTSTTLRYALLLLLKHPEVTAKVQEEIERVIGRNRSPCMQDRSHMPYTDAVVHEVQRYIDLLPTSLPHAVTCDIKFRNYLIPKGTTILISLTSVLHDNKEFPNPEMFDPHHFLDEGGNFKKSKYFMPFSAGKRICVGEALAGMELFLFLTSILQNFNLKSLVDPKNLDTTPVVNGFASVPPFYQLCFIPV
Take `Cc1c(-c2cccs2)nc2ccccc2c1C(=O)N[C@@H](C)C1CCCCC1`: the IC50 was 20 µM. The value for `O=C(Cn1c(CCc2cccc(F)c2F)nc(=O)c2ccccc21)N(Cc1ccc(-c2ccc(C(F)(F)F)cc2)cc1)C1CCN(c2ccncn2)CC1` was 0.0794 µM; that for `C[C@H](NC(=O)c1c(Cc2cncnc2)c(-c2cccs2)nc2ccccc12)C1CCCCC1` was 31.6 µM; that for `Cc1ccc2c(N3CCN(CCc4ccc(F)c(-c5cncnc5)c4)CC3)cccc2n1` was 10 µM.

For the molecule `Cc1ccc2c(N3CCN(CCc4ccccc4)CC3)cccc2n1`, 39.8 µM corresponded to half-maximal inhibition (IC50).

`O=C(Cn1c(CCc2cccc(F)c2F)nc(=O)c2ccccc21)N(Cc1ccc(-c2ccc(C(F)(F)F)cc2)cc1)C1CCNCC1` gave an IC50 of 15.8 µM. This IC50 lies about 2.5-fold lower than the previous one. In the case of `Cc1c(-c2ccccc2)nc2ccccc2c1C(=O)N[C@@H](c1cccc(F)c1)C1CC1` it was 7.94 µM.

Regarding `O=C(Cn1c(CCc2cccc(F)c2F)nc(=O)c2cccnc21)N(Cc1ccc(-c2ccc(C(F)(F)F)cc2)cc1)C1CCNCC1`, it took 20 µM to reach half-maximal inhibition (IC50). Consider `O=C(N[C@@H](c1cccc(F)c1)C1CC1)c1c(Cc2cncnc2)c(-c2ccccc2)nc2ccccc12`, for which the IC50 was 10 µM. The value for `Cc1ccc2c(N3CCN(CCc4ccc(F)cc4)CC3)cccc2n1` was 31.6 µM; that for `Cc1ccc2c(N3CCN(CCc4cccc(-c5cncnc5)c4)CC3)cccc2n1` was 20 µM; that for `O=C(Cn1c(CCc2cccc(F)c2F)nc(=O)c2cccnc21)N(Cc1ccc(-c2ccc(C(F)(F)F)cc2)cc1)C1CCN(c2ccncn2)CC1` was 0.1 µM.

A word on the IC50: it is the concentration that gives 50% inhibition. A higher IC50 goes with a need for much substance.
